The assay has as its system Lewis lung carcinoma i.m., BDF1 mice, T/C %. As to the kind of experiment: NCI In Vivo Anticancer Drug Screen. Data for tumor model Lewis Lung Carcinoma (intramuscular) in B6D2F1 (BDF1) mice. Put shortly: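 Compound given to mice with transplantable tumours; survival or tumour size compared against the vehicle control group, reported as T divided by C.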

“And” between values parts separate entries of the source, which are not always exact repeats. Identical values can stand only once. Inconclusive results are not listed.

Experimental findings from PubChem BioAssay AID272 (DTP/NCI, 2004) are described below.

In the case of `CCCCC(CCC)(CCN)CCCC`, the T/C is, setting by setting: (endpoint: mean tumor weight (est.), dose: 1.0 mg/kg/injection, schedule: Q01DX011 (ip), vehicle: saline with Tween-80, higher = larger tumour) 90 % of control; (endpoint: mean tumor weight (est.), dose: 2.0 mg/kg/injection, schedule: Q01DX011 (ip), vehicle: saline with Tween-80, higher = larger tumour) 97 % of control; (endpoint: mean tumor weight (est.), dose: 4.0 mg/kg/injection, schedule: Q01DX011 (ip), vehicle: saline with Tween-80, higher = larger tumour) 102 % of control; (endpoint: mean tumor weight (est.), dose: 8.0 mg/kg/injection, schedule: Q01DX011 (ip), vehicle: saline with Tween-80, higher = larger tumour) 69 % of control; (endpoint: median survival time, dose: 1.0 mg/kg/injection, schedule: Q01DX011 (ip), vehicle: saline with Tween-80, higher = longer survival) 103 % of control; (endpoint: median survival time, dose: 2.0 mg/kg/injection, schedule: Q01DX011 (ip), vehicle: saline with Tween-80, higher = longer survival) 92 % of control. Further, the T/C was 94 % of control (endpoint: median survival time, dose: 4.0 mg/kg/injection, schedule: Q01DX011 (ip), vehicle: saline with Tween-80, higher = longer survival) and 92 % of control (endpoint: median survival time, dose: 8.0 mg/kg/injection, schedule: Q01DX011 (ip), vehicle: saline with Tween-80, higher = longer survival).
Regarding `CC(C)S(=O)(=O)/C(Cl)=C(/Cl)C(Cl)=C(Cl)Cl`, the T/C is 111 % of control (endpoint: mean tumor weight, dose: 25.0 mg/kg/injection, schedule: Q01DX011 (ip), vehicle: sodium bicarbonate, higher = larger tumour); 117 % of control (endpoint: mean tumor weight, dose: 50.0 mg/kg/injection, schedule: Q01DX011 (ip), vehicle: sodium bicarbonate, higher = larger tumour); 100 % of control (endpoint: mean tumor weight, dose: 100.0 mg/kg/injection, schedule: Q01DX011 (ip), vehicle: sodium bicarbonate, higher = larger tumour); 87 % of control (endpoint: median survival time, dose: 50.0 mg/kg/injection, schedule: Q01DX011 (ip), vehicle: sodium bicarbonate, higher = longer survival).
Turning to `CC(=O)O[C@H]1[C@H]2O[C@]23[C@@H]2CC[C@@H]4C[C@@H](O)CC[C@]4(C)[C@H]2CC[C@]3(C)[C@H]1c1ccc(=O)oc1`, the T/C was 94 % of control (endpoint: mean tumor weight (est.), dose: 7.5 mg/kg/injection, schedule: Q01DX011 (ip), vehicle: other, higher = larger tumour) and 90 % of control (endpoint: median survival time, dose: 7.5 mg/kg/injection, schedule: Q01DX011 (ip), vehicle: other, higher = longer survival).
On to `CC[n+]1c(-c2ccccc2)c2cc(N)ccc2c2ccc(N)cc21`, for which the T/C by setting is: (endpoint: median survival time, dose: 0.25 mg/kg/injection, schedule: Q01DX011 (ip), vehicle: steriod suspending solution, higher = longer survival) 92 % of control; (endpoint: median survival time, dose: 0.5 mg/kg/injection, schedule: Q01DX011 (ip), vehicle: steriod suspending solution, higher = longer survival) 107 % of control; (endpoint: median survival time, dose: 1.0 mg/kg/injection, schedule: Q01DX011 (ip), vehicle: steriod suspending solution, higher = longer survival) 100 % of control; (endpoint: median survival time, dose: 2.0 mg/kg/injection, schedule: Q01DX011 (ip), vehicle: steriod suspending solution, higher = longer survival) 117 % of control; (endpoint: median survival time, dose: 4.0 mg/kg/injection, schedule: Q01DX011 (ip), vehicle: steriod suspending solution, higher = longer survival) 96 % of control; (endpoint: median tumor weight (est.), dose: 0.25 mg/kg/injection, schedule: Q01DX011 (ip), vehicle: steriod suspending solution, higher = larger tumour) 90 % of control. In addition, the T/C by setting is: (endpoint: median tumor weight (est.), dose: 0.5 mg/kg/injection, schedule: Q01DX011 (ip), vehicle: steriod suspending solution, higher = larger tumour) 95 % of control; (endpoint: median tumor weight (est.), dose: 1.0 mg/kg/injection, schedule: Q01DX011 (ip), vehicle: steriod suspending solution, higher = larger tumour) 90 % of control; (endpoint: median tumor weight (est.), dose: 2.0 mg/kg/injection, schedule: Q01DX011 (ip), vehicle: steriod suspending solution, higher = larger tumour) 77 % of control; (endpoint: median tumor weight (est.), dose: 4.0 mg/kg/injection, schedule: Q01DX011 (ip), vehicle: steriod suspending solution, higher = larger tumour) 73 % of control.
With `CS(=O)(=O)OCCCNCCCOS(C)(=O)=O`, the T/C was 110 % of control and 113 % of control and 119 % of control (endpoint: median survival time, dose: 10.0 mg/kg/injection, schedule: Q01DX011 (ip), vehicle: saline, higher = longer survival); 109 % of control (endpoint: median survival time, dose: 20.0 mg/kg/injection, schedule: Q01DX011 (ip), vehicle: saline, higher = longer survival); 92 % of control and 107 % of control (endpoint: median survival time, dose: 40.0 mg/kg/injection, schedule: Q01DX011 (ip), vehicle: saline, higher = longer survival).
Turning to `CCCCn1cnc2c(N)ncnc21`, the T/C is 81 % of control (endpoint: mean tumor weight (est.), dose: 12.5 mg/kg/injection, schedule: Q01DX011 (ip), vehicle: saline with Tween-80, higher = larger tumour); 95 % of control (endpoint: mean tumor weight (est.), dose: 25.0 mg/kg/injection, schedule: Q01DX011 (ip), vehicle: saline with Tween-80, higher = larger tumour); 77 % of control (endpoint: mean tumor weight (est.), dose: 50.0 mg/kg/injection, schedule: Q01DX011 (ip), vehicle: saline with Tween-80, higher = larger tumour); 93 % of control (endpoint: median survival time, dose: 12.5 mg/kg/injection, schedule: Q01DX011 (ip), vehicle: saline with Tween-80, higher = longer survival); 97 % of control (endpoint: median survival time, dose: 25.0 mg/kg/injection, schedule: Q01DX011 (ip), vehicle: saline with Tween-80, higher = longer survival); 87 % of control (endpoint: median survival time, dose: 50.0 mg/kg/injection, schedule: Q01DX011 (ip), vehicle: saline with Tween-80, higher = longer survival).
Regarding `O=C(Nc1ccc(S(=O)(=O)O)cc1)c1ccc([N+](=O)[O-])cc1`, the T/C runs as follows: (endpoint: mean tumor weight (est.), dose: 3.5 mg/kg/injection, schedule: Q01DX011 (ip), vehicle: saline, higher = larger tumour) 87 % of control; (endpoint: mean tumor weight (est.), dose: 7.0 mg/kg/injection, schedule: Q01DX011 (ip), vehicle: saline, higher = larger tumour) 120 % of control; (endpoint: mean tumor weight (est.), dose: 14.0 mg/kg/injection, schedule: Q01DX011 (ip), vehicle: saline, higher = larger tumour) 94 % of control; (endpoint: mean tumor weight (est.), dose: 28.0 mg/kg/injection, schedule: Q01DX011 (ip), vehicle: saline, higher = larger tumour) 82 % of control; (endpoint: median survival time, dose: 3.5 mg/kg/injection, schedule: Q01DX011 (ip), vehicle: saline, higher = longer survival) 92 % of control; (endpoint: median survival time, dose: 7.0 mg/kg/injection, schedule: Q01DX011 (ip), vehicle: saline, higher = longer survival) 96 % of control. Further, the T/C reads like this: (endpoint: median survival time, dose: 14.0 mg/kg/injection, schedule: Q01DX011 (ip), vehicle: saline, higher = longer survival) 105 % of control; (endpoint: median survival time, dose: 28.0 mg/kg/injection, schedule: Q01DX011 (ip), vehicle: saline, higher = longer survival) 117 % of control.
Take `O=c1c(O)c(-c2ccc(O)c(O)c2)oc2cc(O)cc(O)c12`: the T/C (endpoint: median survival time, dose: 200.0 mg/kg/injection, schedule: Q02DX009 (ip), vehicle: saline, higher = longer survival) was 102 % of control.
Regarding `COC(=O)C[C@](O)(CCCC(C)(C)O)C(=O)O[C@@H]1C(OC)=C[C@]23CCCN2CCc2cc4c(cc2[C@H]13)OCO4`, the T/C runs as follows: (endpoint: mean tumor weight (est.), dose: 0.25 mg/kg/injection, schedule: Q01DX011 (ip), vehicle: saline, higher = larger tumour) 60 % of control; (endpoint: mean tumor weight (est.), dose: 0.5 mg/kg/injection, schedule: Q01DX011 (ip), vehicle: saline, higher = larger tumour) 57 % of control; (endpoint: median survival time, dose: 0.25 mg/kg/injection, schedule: Q01DX011 (ip), vehicle: saline, higher = longer survival) 93 % of control.
On to `CN(Cc1ccccc1)/N=N/c1nc[nH]c1C(N)=O`, for which the T/C reads like this: (endpoint: mean tumor weight, dose: 50.0 mg/kg/injection, schedule: Q01DX011 (ip), vehicle: saline, higher = larger tumour) 64 % of control; (endpoint: median survival time, dose: 50.0 mg/kg/injection, schedule: Q01DX011 (ip), vehicle: saline, higher = longer survival) 91 % of control.
For the compound `CC(C)(C)CC(C)(C)NCC(O)COc1ccc(C(C)(C)c2ccc(OCC(O)CNC(C)(C)CC(C)(C)C)cc2)cc1` (stereo unspecified), the T/C (endpoint: mean tumor weight (est.), dose: 3.12 mg/kg/injection, schedule: Q01DX011 (ip), vehicle: other, higher = larger tumour) is 68 % of control.
On to `CCc1ccc(/C=C/c2ccc(O)c3ncccc23)[n+](C)c1`, for which the T/C (endpoint: mean tumor weight, dose: 4.0 mg/kg/injection, schedule: Q01DX011 (ip), vehicle: saline, higher = larger tumour) is 53 % of control; the T/C (endpoint: mean tumor weight, dose: 8.0 mg/kg/injection, schedule: Q01DX011 (ip), vehicle: saline, higher = larger tumour) was 61 % of control; the T/C (endpoint: mean tumor weight, dose: 16.0 mg/kg/injection, schedule: Q01DX011 (ip), vehicle: saline, higher = larger tumour) was 46 % of control; the T/C (endpoint: median survival time, dose: 4.0 mg/kg/injection, schedule: Q01DX011 (ip), vehicle: saline, higher = longer survival) was 97 % of control; the T/C (endpoint: median survival time, dose: 8.0 mg/kg/injection, schedule: Q01DX011 (ip), vehicle: saline, higher = longer survival) was 116 % of control.
As for `CCCCCCCCCCCC[N+](C)(C)C` (tested in a mixture with another compound), the T/C (endpoint: median survival time, dose: 6.25 mg/kg/injection, schedule: Q01DX011 (ip), vehicle: saline, higher = longer survival) is 110 % of control.
Take `CCCCc1ccc(NC(=O)N(CCCl)N=O)cc1`: the T/C (endpoint: median survival time, dose: 3.0 mg/kg/injection, schedule: Q07DX003 (ip), vehicle: Klucel (hydroxypropylcellulose) (HPC), higher = longer survival) was 112 % of control; the T/C (endpoint: median survival time, dose: 5.0 mg/kg/injection, schedule: Q07DX003 (ip), vehicle: Klucel (hydroxypropylcellulose) (HPC), higher = longer survival) was 106 % of control; the T/C (endpoint: median survival time, dose: 14.0 mg/kg/injection, schedule: Q07DX003 (ip), vehicle: Klucel (hydroxypropylcellulose) (HPC), higher = longer survival) was 110 % of control; the T/C (endpoint: median survival time, dose: 23.0 mg/kg/injection, schedule: Q07DX003 (ip), vehicle: Klucel (hydroxypropylcellulose) (HPC), higher = longer survival) was 87 % of control.
Turning to `CC1=C2C(=CC(C)(C)[C@@H]2O)C(=O)[C@](C)(O)C12CC2`, the T/C was 95 % of control (endpoint: mean tumor weight, dose: 0.1 mg/kg/injection, schedule: Q01DX011 (ip), vehicle: other, higher = larger tumour); 84 % of control (endpoint: mean tumor weight, dose: 0.2 mg/kg/injection, schedule: Q01DX011 (ip), vehicle: other, higher = larger tumour); 21 % of control (endpoint: mean tumor weight, dose: 0.4 mg/kg/injection, schedule: Q01DX011 (ip), vehicle: other, higher = larger tumour).
With `O=NN(CCCl)C(=O)NCC1CCC(CNC(=O)N(CCCl)N=O)CC1` (stereo unspecified), the T/C (endpoint: median survival time, dose: 65.0 mg/kg/injection, schedule: Q07DX003 (ip), vehicle: Klucel (hydroxypropylcellulose) (HPC), higher = longer survival) is 116 % of control; the T/C (endpoint: median survival time, dose: 108.0 mg/kg/injection, schedule: Q07DX003 (ip), vehicle: Klucel (hydroxypropylcellulose) (HPC), higher = longer survival) was 106 % of control; the T/C (endpoint: median survival time, dose: 180.0 mg/kg/injection, schedule: Q07DX003 (ip), vehicle: Klucel (hydroxypropylcellulose) (HPC), higher = longer survival) is 114 % of control; the T/C (endpoint: median survival time, dose: 300.0 mg/kg/injection, schedule: Q07DX003 (ip), vehicle: Klucel (hydroxypropylcellulose) (HPC), higher = longer survival) was 106 % of control; the T/C (endpoint: median survival time, dose: 500.0 mg/kg/injection, schedule: Q07DX003 (ip), vehicle: Klucel (hydroxypropylcellulose) (HPC), higher = longer survival) is 114 % of control.
